Several values for one entry are separate records, joined by “and”; a condition that tells them apart may be missing. Equal values may be shown once.
Tests used:
[1] = Crystal; for vapor or sublimation pressure: Calculated from knudsen effusion weight loss; for Normal melting temperature: DTA
[2] = Molar enthalpy of transition or fusion; conditions: Crystal; DSC

O=C1c2ccccc2Cc2ccccc21 [9(10H)-anthracenone]
[1]
Conditions	vapor or sublimation pressure
346.15 K	0.000131 kPa and 0.000128 kPa
348.14 K	0.000162 kPa and 0.000156 kPa
351.13 K	0.000223 kPa and 0.000217 kPa and 0.000221 kPa
354.18 K	0.000299 kPa and 0.00029 kPa and 0.000307 kPa
355.68 K	0.000359 kPa and 0.000354 kPa and 0.000348 kPa
357.19 K	0.00041 kPa and 0.000405 kPa and 0.000396 kPa
360.15 K	0.000558 kPa and 0.000553 kPa and 0.000533 kPa
363.14 K	0.000744 kPa and 0.000727 kPa and 0.0007 kPa
365.14 K	0.000895 kPa and 0.000879 kPa and 0.00084 kPa

Conditions	Molar enthalpy of transition or fusion [kcal/mol]	Normal melting temperature [°C]
[1]	–	156.4
[2]	5.35	–

O=c1c2ccccc2oc2ccccc12 [9H-xanthen-9-one]
[1]
Conditions	vapor or sublimation pressure
342.22 K	0.00013 kPa and 0.000132 kPa and 0.000129 kPa
344.15 K	0.000163 kPa and 0.00016 kPa and 0.000157 kPa
346.26 K	0.000197 kPa and 0.000201 kPa and 0.000196 kPa
348.26 K	0.000238 kPa and 0.00024 kPa and 0.000245 kPa
350.26 K	0.000301 kPa and 0.000303 kPa and 0.000295 kPa
354.2 K	0.000451 kPa and 0.000452 kPa and 0.000434 kPa
356.21 K	0.000553 kPa and 0.000546 kPa and 0.000529 kPa
358.26 K	0.000674 kPa and 0.000667 kPa and 0.000658 kPa
360.15 K	0.000814 kPa and 0.000799 kPa and 0.000781 kPa
362.22 K	0.000989 kPa and 0.000954 kPa

Conditions	Molar enthalpy of transition or fusion [kcal/mol]	Normal melting temperature [°C]
[1]	–	175.2
[2]	6.36	–

O=C1c2ccccc2C(=O)c2ccccc21 [9,10(9H,10H)-anthracenedione]
[1]
Conditions	vapor or sublimation pressure
377.06 K	0.000173 kPa and 0.000164 kPa
379.08 K	0.00021 kPa and 0.0002 kPa
381.26 K	0.00025 kPa and 0.000246 kPa
383.26 K	0.000299 kPa and 0.000302 kPa
385.26 K	0.000359 kPa and 0.000352 kPa
391.26 K	0.000618 kPa
393.08 K	0.000743 kPa and 0.000716 kPa
395.03 K	0.000886 kPa

Conditions	Molar enthalpy of transition or fusion [kcal/mol]	Normal melting temperature [°C]
[1]	–	283.6
[2]	8.68	–

O=c1c2ccccc2sc2ccccc12 [thioxanthone]
[1]
Conditions	vapor or sublimation pressure
369.12 K	0.000187 kPa and 0.000186 kPa and 0.000178 kPa
371.2 K	0.000232 kPa and 0.000226 kPa and 0.000222 kPa
373.26 K	0.000284 kPa and 0.000274 kPa and 0.00027 kPa
375.12 K	0.000335 kPa and 0.00032 kPa and 0.000321 kPa
377.11 K	0.000413 kPa and 0.000405 kPa and 0.000383 kPa
379.2 K	0.000496 kPa and 0.000495 kPa and 0.00048 kPa
381.27 K	0.000611 kPa and 0.000592 kPa and 0.000579 kPa
383.12 K	0.000711 kPa and 0.000701 kPa and 0.000664 kPa
385.27 K	0.000863 kPa and 0.00082 kPa and 0.00081 kPa
387.2 K	0.001018 kPa and 0.001001 kPa and 0.000962 kPa

Conditions	Molar enthalpy of transition or fusion [kcal/mol]	Normal melting temperature [°C]
[1]	–	213.5
[2]	6.79	–

c1ccc2c(c1)Sc1ccccc1S2 [thianthrene]
[1]
Conditions	vapor or sublimation pressure
344.27 K	0.000161 kPa and 0.000163 kPa
346.12 K	0.0002 kPa and 0.000198 kPa and 0.000197 kPa
348.1 K	0.000246 kPa and 0.000243 kPa and 0.000239 kPa
350.26 K	0.000301 kPa and 0.000299 kPa
352.11 K	0.00037 kPa and 0.000368 kPa and 0.000362 kPa
354.1 K	0.000447 kPa and 0.000446 kPa and 0.000439 kPa
356.26 K	0.000549 kPa and 0.00056 kPa and 0.000555 kPa
358.1 K	0.00068 kPa and 0.000687 kPa and 0.000669 kPa
362.05 K	0.000992 kPa and 0.000995 kPa and 0.000973 kPa
364.06 K	0.001197 kPa and 0.001196 kPa and 0.00117 kPa

Source: the NIST ThermoML archive (doi:10.1021/je100850z)
